Organism: Rattus norvegicus
Assay: DrugMatrix - Regimen: Daily Repeat
Assay type: toxicity, organism-based, Sprague-Dawley
Set-up: regimen Daily Repeat, gender Male, age 6-8 weeks
Details: in vivo, po, route oral GAVAGE, vehicle .5 % CMC; for ABSOLUTE BASOPHIL / ABSOLUTE EOSINOPHIL / ABSOLUTE LYMPHOCYTE / ABSOLUTE MONOCYTE / ABSOLUTE SEGMENTED NEUTROPHIL / BASOPHIL / EOSINOPHIL / ERYTHROCYTE COUNT / HEMATOCRIT / HEMOGLOBIN / LEUKOCYTE COUNT / LYMPHOCYTE / MEAN CORPUSCULAR HEMOGLOBIN / MEAN CORPUSCULAR HEMOGLOBIN CONCENTRATION / MEAN CORPUSCULAR VOLUME / MONOCYTE / NEUTROPHIL / NUCLEATED RED BLOOD CELLS / PLATELET COUNT: tissue Blood; for ALANINE AMINOTRANSFERASE / ALBUMIN / ALKALINE PHOSPHATASE / ASPARTATE AMINOTRANSFERASE / BLOOD UREA NITROGEN / CARBON DIOXIDE / CHLORIDE / CHOLESTEROL / CREATINE PHOSPHOKINASE / CREATININE / GLUCOSE / LACTATE DEHYDROGENASE / LIPASE / PHOSPHORUS / POTASSIUM / SODIUM / TOTAL BILIRUBIN / TOTAL PROTEIN / URIC ACID: tissue Plasma
[1] = 0 mg/kg, 72 h, dose level Control, time 3 day
[2] = 0 mg/kg, 120 h, dose level Control, time 5 day
[3] = 10 mg/kg, 72 h, dose level Low, time 3 day

## O=C1CN=C(c2ccccc2Cl)c2cc([N+](=O)[O-])ccc2N1 [CLONAZEPAM]
[1]
  ABSOLUTE BASOPHIL: 0 CELLS/uL
  ABSOLUTE EOSINOPHIL: 0 CELLS/uL
  ABSOLUTE LYMPHOCYTE: 12191.17 CELLS/uL
  ABSOLUTE MONOCYTE: 183.17 CELLS/uL
  ABSOLUTE SEGMENTED NEUTROPHIL: 1192.33 CELLS/uL
  BASOPHIL: 0%
  EOSINOPHIL: 0%
  ERYTHROCYTE COUNT: 5.51 x10E6/uL
  HEMATOCRIT: 35.45%
  HEMOGLOBIN: 13.82 G/DL
  LEUKOCYTE COUNT: 13.57 x10E3/uL
  LYMPHOCYTE: 89.83%
  MEAN CORPUSCULAR HEMOGLOBIN: 25.1 pg
  MEAN CORPUSCULAR HEMOGLOBIN CONCENTRATION: 38.98 G/DL
  MEAN CORPUSCULAR VOLUME: 64.42 fL
  MONOCYTE: 1.33%
  NEUTROPHIL: 8.83%
  NUCLEATED RED BLOOD CELLS: 0 /100WBC
  PLATELET COUNT: 1118.17 x10E3/uL
  ALANINE AMINOTRANSFERASE: 55 u/L
  ALBUMIN: 4.15 G/DL
  ALKALINE PHOSPHATASE: 449.5 u/L
  ASPARTATE AMINOTRANSFERASE: 112.83 u/L
  BLOOD UREA NITROGEN: 17.33 mg/dL
  CARBON DIOXIDE: 29.5 mmol/L
  CHLORIDE: 101 MEQ/L
  CHOLESTEROL: 70 mg/dL
  CREATINE PHOSPHOKINASE: 1325.83 u/L
  CREATININE: 0.18 mg/dL
  GLUCOSE: 171.5 mg/dL
  LACTATE DEHYDROGENASE: 386 u/L
  LIPASE: 10 u/L
  PHOSPHORUS: 11.57 mg/dL
  POTASSIUM: 6.21 MEQ/L
  SODIUM: 141.65 MEQ/L
  TOTAL BILIRUBIN: 0.15 mg/dL
  TOTAL PROTEIN: 5.75 G/DL
  URIC ACID: 1.28 mg/dL
[2]
  ABSOLUTE BASOPHIL: 0 CELLS/uL
  ABSOLUTE EOSINOPHIL: 138.17 CELLS/uL
  ABSOLUTE LYMPHOCYTE: 13283.17 CELLS/uL
  ABSOLUTE MONOCYTE: 303.83 CELLS/uL
  ABSOLUTE SEGMENTED NEUTROPHIL: 1308.17 CELLS/uL
  BASOPHIL: 0%
  EOSINOPHIL: 1%
  ERYTHROCYTE COUNT: 5.32 x10E6/uL
  HEMATOCRIT: 33.8%
  HEMOGLOBIN: 13.63 G/DL
  LEUKOCYTE COUNT: 15.03 x10E3/uL
  LYMPHOCYTE: 88.33%
  MEAN CORPUSCULAR HEMOGLOBIN: 25.68 pg
  MEAN CORPUSCULAR HEMOGLOBIN CONCENTRATION: 40.35 G/DL
  MEAN CORPUSCULAR VOLUME: 63.67 fL
  MONOCYTE: 1.83%
  NEUTROPHIL: 8.83%
  NUCLEATED RED BLOOD CELLS: 0 /100WBC
  PLATELET COUNT: 1097.5 x10E3/uL
  ALANINE AMINOTRANSFERASE: 54.5 u/L
  ALBUMIN: 4.27 G/DL
  ALKALINE PHOSPHATASE: 337 u/L
  ASPARTATE AMINOTRANSFERASE: 94.67 u/L
  BLOOD UREA NITROGEN: 17 mg/dL
  CARBON DIOXIDE: 28.33 mmol/L
  CHLORIDE: 101.5 MEQ/L
  CHOLESTEROL: 71.33 mg/dL
  CREATINE PHOSPHOKINASE: 628.17 u/L
  CREATININE: 0.19 mg/dL
  GLUCOSE: 177.83 mg/dL
  LACTATE DEHYDROGENASE: 500.5 u/L
  LIPASE: 9.5 u/L
  PHOSPHORUS: 12.3 mg/dL
  POTASSIUM: 5.63 MEQ/L
  SODIUM: 143.03 MEQ/L
  TOTAL BILIRUBIN: 0.2 mg/dL
  TOTAL PROTEIN: 6.02 G/DL
  URIC ACID: 1.5 mg/dL
[3]
  ABSOLUTE BASOPHIL: 0 CELLS/uL
  ABSOLUTE EOSINOPHIL: 0 CELLS/uL
  ABSOLUTE LYMPHOCYTE: 12266.67 CELLS/uL
  ABSOLUTE MONOCYTE: 135.33 CELLS/uL
  ABSOLUTE SEGMENTED NEUTROPHIL: 664.67 CELLS/uL
  BASOPHIL: 0%
  EOSINOPHIL: 0%
  ERYTHROCYTE COUNT: 5.48 x10E6/uL
  HEMATOCRIT: 35.23%
  HEMOGLOBIN: 13.73 G/DL
  LEUKOCYTE COUNT: 13.07 x10E3/uL
  LYMPHOCYTE: 93.33%
  MEAN CORPUSCULAR HEMOGLOBIN: 25.1 pg
  MEAN CORPUSCULAR HEMOGLOBIN CONCENTRATION: 38.97 G/DL
  MEAN CORPUSCULAR VOLUME: 64.3 fL
  MONOCYTE: 1.33%
  NEUTROPHIL: 5.33%
  NUCLEATED RED BLOOD CELLS: 0 /100WBC
  PLATELET COUNT: 1157.67 x10E3/uL
  ALANINE AMINOTRANSFERASE: 58.33 u/L
  ALBUMIN: 4.1 G/DL
  ALKALINE PHOSPHATASE: 310 u/L
  ASPARTATE AMINOTRANSFERASE: 85.33 u/L
  BLOOD UREA NITROGEN: 17.67 mg/dL
  CARBON DIOXIDE: 27.67 mmol/L
  CHLORIDE: 101.67 MEQ/L
  CHOLESTEROL: 69.33 mg/dL
  CREATINE PHOSPHOKINASE: 333.33 u/L
  CREATININE: 0.16 mg/dL
  GLUCOSE: 163 mg/dL
  LACTATE DEHYDROGENASE: 104.33 u/L
  LIPASE: 10 u/L
  PHOSPHORUS: 11.3 mg/dL
  POTASSIUM: 6.13 MEQ/L
  SODIUM: 142.3 MEQ/L
  TOTAL BILIRUBIN: 0.1 mg/dL
  TOTAL PROTEIN: 5.6 G/DL
  URIC ACID: 1.73 mg/dL

Reference: ChEMBL document CHEMBL3885881, “DrugMatrix”
